In patent publication US20260224486A1, “DIANHYDROHEXITOL BASED IONIZABLE LIPIDS FOR NUCLEIC ACID DELIVERY” (SANOFI PASTEUR INC., priority 2023, published 2026):

Legend:
[1] = Lipid nanoparticle size and polydispersity index by dynamic light scattering (Malvern Zetasizer); assay type: physicochemical; conditions: hEPO mRNA LNP, Process A, Cationic Lipid:DMG-PEG2000:Cholesterol:DOPE 40:1.5:28.5:30 mol %, N/P 4
Description: The lipid nanoparticles in the examples of the present invention were formulated using Process A of WO 2018/089801 (see, e.g., Example 1 and FIG. 1 of WO 2018/089801). Process A (“A”) relates to a conventional method of encapsulating mRNA by mixing mRNA with a mixture of lipids, without first pre-forming the lipids into lipid nanoparticles. In an exemplary process, an ethanolic solution of a mixture of lipids (cationic lipid, phosphatidylethanolamine, cholesterol, and polyethylene glycol-lipid) at a fixed lipid to mRNA ratio were combined with an aqueous buffered solution of target mRNA at an acidic pH under controlled conditions to yield a suspension of uniform LNPs. After ultrafiltration and diafiltration into a suitable diluent system, the resulting nanoparticle suspensions were diluted to final concentration, filtered, and stored frozen at −80° C. until use.
(§1) Lipid nanoparticle formulations of Table 1 were prepared by Process A. All of the lipid nanoparticle formulations comprised hEPO mRNA and the different lipids (Cationic Lipid: DMG-PEG2000: Cholesterol: DOPE) in mol % ratios of 40:1.5:28.5:30 (Cationic Lipid: DMG-PEG2000: Cholesterol: DOPE).
The Polydispersity Index (Pdl) of lipid nanoparticles can be determined by diluting the formulation in 10% trehalose at about 0.1 mg/ml mRNA concentration and then measuring the size on Malvern zetasizer. The lipid nanoparticle size can be obtained with Malvern Zetasizer Nano-ZS.
Dynamic light scattering (DLS) measurements were performed using a Malvern Instruments Zetasizer with a backscattering detector angle of 173° and a 4-mW, 633-nm He—Ne laser (Worcestershire, UK). The samples were analyzed by diluting in 10% Trehalose and measuring the size and Poly dispersity Index (PDI) in an optical grade polystyrene cuvette.

[2] = mRNA encapsulation efficiency of lipid nanoparticles (RiboGreen assay); assay type: physicochemical; conditions: hEPO mRNA LNP, Process A, Cationic Lipid:DMG-PEG2000:Cholesterol:DOPE 40:1.5:28.5:30 mol %, N/P 4
Description: In embodiments, the lipid nanoparticle encapsulates a nucleic acid, optionally an mRNA encoding a peptide or protein. In embodiments, the lipid nanoparticle encapsulates an mRNA encoding a peptide or protein, optionally for use in a vaccine. In embodiments, the peptide is an antigen. As used herein, the phrase “encapsulation percentage” refers to the fraction of therapeutic agent (e.g. mRNA) that is effectively encapsulated within a liposomal-based vehicle (e.g. a lipid nanoparticle) relative to the initial fraction of therapeutic agent present in the lipid phase. In embodiments, the lipid nanoparticles have an encapsulation percentage for mRNA of at least 50%. In embodiments, the lipid nanoparticles have an encapsulation percentage for mRNA of at least 55%. In embodiments, the lipid nanoparticles have an encapsulation percentage for mRNA of at least 60%. In embodiments, the lipid nanoparticles have an encapsulation percentage for mRNA of at least 65%. In embodiments, the lipid nanoparticles have an encapsulation percentage for mRNA of at least 70%. In embodiments, the lipid nanoparticles have an encapsulation percentage for mRNA of at least 75%. In embodiments, the lipid nanoparticles have an encapsulation percentage for mRNA of at least 80%. In embodiments, the lipid nanoparticles have an encapsulation percentage for mRNA of at least 85%. In embodiments, the lipid nanoparticles have an encapsulation percentage for mRNA of at least 90%. In embodiments, the lipid nanoparticles have an encapsulation percentage for mRNA of at least 95%. In embodiments, the encapsulation percentage is calculated by performing the Ribogreen assay (Invitrogen) with and without the presence of 0.1% Triton-X 100.
as §1
The RiboGreen Assay is a fluorescence-based method for the determination of mRNA concentration (Total and Free) and % encapsulation using Quant-iT™ RiboGreen® RNA reagent in mRNA containing lipid nanoparticles.
• To each of the standards (Blank, mRNA-1, mRNA-2. mRNA-3, mRNA-4, mRNA-5) and Samples (free mRNA and total mRNA), add 1.0 mL of 200-fold Ribogreen Reagent Solution and gently mix by inversion. This is a 2× Dilution. • Add 200 μL of each standard and sample in triplicate using the reverse pipetting technique in a 96-well Costar Black with Clear Background Plate. Ensure no bubbles are present in the plate before the fluorescence reading. • Read the fluorescence signal using the below instrument parameters: • Read Type: Fluorescence, Bottom Read • Excitation: 485 nm; Cut-off: 515 nm; Emission: 530 nm • Plate Type: 96-well Costar Black with Clear Background
The average fluorescence from each calibration standard is plotted against the concentration to generate a linear calibration curve using the MS Excel software. The coefficient of determination (R^2) of calibration curve must be R^2>0.99.
[formula] • Where, • Y=average fluorescence value • m: slope • x: concentration (pg/mL) • c: y-intercept • Using the linear equation, calculate the concentration of free and total mRNA concentration in the test sample by replacing the y value in the equation with the average fluorescence value of each respective sample • Once the concentration is determined, the actual concentration in the sample can be back-calculated by multiplying the concentration in the test sample with the dilution factor (DF) as follows:
[formula] [formula] • Concentration of encapsulated mRNA can be determined by subtracting the concentration of free mRNA from the total mRNA. • % Encapsulation can then be calculated by taking the ratio of encapsulated mRNA over total mRNA and multiplying the result with 100.

BALB/cJ mice = experiment: Delivery of hEPO mRNA by intramuscular administration of LNPs; serum hEPO by ELISA; assay type: in vivo, Mouse; conditions: for hEPO 6 Hr (ng/mL) Mean: Table 3, isomannide-derived lipids
Description: In summary, lipid screening studies were conducted with female BALB/cJ mice 6-8 weeks of age. Mice were dosed with 0.1 μg in 30 μL of LNPs by a single intramuscular (IM) injection into the gastrocnemius leg muscle. Blood samples were taken 6 and 24 hours post injection and hEPO levels were measured in the blood serum of the mice using an ELISA assay according to the manufacture's protocol.
Treatment Regimen: On Day 1, animals from Groups 1-33 were dosed via intramuscular injection while under light isoflurane anesthesia according to the study design table above. Animals in Groups 1-33 were injected with EPO mRNA LNPs in the right leg only. Groups 1 and 17 animals received MC3 control.
Interim Sample Collections: Interim whole blood (^~50 μL) was collected by tail snip or saphenous vein at 6 and 24 hours post dose administration (±5%). Blood samples were collected into serum separator tubes, allowed to clot at room temperature for at least 10 minutes, centrifuged at ambient temperature at minimum 1000 g for 10 minutes and the serum was extracted. All serum samples were stored at nominally −70° C. until analysis hEPO by the Testing Facility. The results of the EPO analysis were included in the Data Submission.
Terminal Blood Collections: Whole blood was collected via cardiac puncture into serum separator tube, allowed to clot at room temperature for at least 10 minutes, centrifuged at ambient temperature at minimum 1000 g for 10 minutes and the serum was extracted. Serum samples were stored at nominally −70° C. until analyzed for hEPO by the Test Facility.
ELISA Assay: Human erythropoietin (hEPO) levels in sera samples were determined by ELISA kit (R&D systems, Cat #DEP-00) according to the manufactory instruction and the results were included in the Data Submission. The “shaker” protocol was used. The serum samples were diluted between 1:40 and 1:100.

[3] = Table 2, isosorbide-derived lipids, mouse serum 6 hours post single IM injection of 0.1 μg hEPO mRNA LNP
[4] = mouse serum 6 hours post single IM injection of 0.1 μg hEPO mRNA LNP

| SMILES | Polydispersity Index (PDI) [1] | Size (nm) [1] | Encapsulation efficiency (EE) % [2] | hEPO 6 Hr (ng/ml) Mean (BALB/cJ mice; Table 4, further lipids, mouse serum 6 hours post IM injection of hEPO mRNA LNP as in example 3) | hEPO 6 Hr (ng/ml) Mean (BALB/cJ mice; [3]) | hEPO 6 Hr (ng/mL) Mean (BALB/cJ mice; [4]) |
| --- | --- | --- | --- | --- | --- | --- |
| CCCCCC/C=C\COC(=O)CCCCCC(O)CN(CCCC(=O)O[C@@H]1CO[C@H]2[C@@H]1OC[C@H]2OC(=O)CCCN(CC(O)CCCCCC(=O)OC/C=C\CCCCCC)CC(O)CCCCCC(=O)OC/C=C\CCCCCC)CC(O)CCCCCC(=O)OC/C=C\CCCCCC (stereo partly drawn) [Compound 16] | 0.11 | 84 nm | 77% |  |  | 9.4 ng/mL |
| CCCCCCCCCCCCCCCCC(O)CN(CCCCC(=O)O[C@@H]1CO[C@H]2[C@@H]1OC[C@H]2OC(=O)CCCCN(CC(O)CCCCCCCCCCCCCCCC)CC(O)CCCCCCCCCCCCCCCC)CC(O)CCCCCCCCCCCCCCCC (stereo partly drawn) [Compound 31] | 0.12 | 98 nm | 97% |  | 14.1 ng/mL |  |
| CCCCCCCCC(O)CN(CCCC(=O)O[C@H]1CO[C@H]2[C@@H]1OC[C@H]2OC(=O)CCCN(CC(O)CCCCCCCC)CC(O)CCCCCCCC)CC(O)CCCCCCCC (stereo partly drawn) [Compound 20] | 0.13 | 95 nm | 89% |  | 25.2 ng/mL |  |
| CCCCCCCCCCCCC(O)CN(CCCCC(=O)O[C@@H]1CO[C@H]2[C@@H]1OC[C@H]2OC(=O)CCCCN(CC(O)CCCCCCCCCCCC)CC(O)CCCCCCCCCCCC)CC(O)CCCCCCCCCCCC (stereo partly drawn) [Compound 5] | 0.11 | 107 nm | 75% |  |  | 26.3 ng/mL |
| CCCCCCCCCCC(O)CN(CCCCC(=O)O[C@@H]1CO[C@H]2[C@@H]1OC[C@H]2OC(=O)CCCCN(CC(O)CCCCCCCCCC)CC(O)CCCCCCCCCC)CC(O)CCCCCCCCCC (stereo partly drawn) [Compound 4] | 0.16 | 78 nm | 94% |  |  | 43.2 ng/mL |
| CCCCCC/C=C\COC(=O)CCCCCC(O)CN(CCCC(=O)O[C@@H]1CO[C@H]2[C@@H]1OC[C@H]2OC(=O)CCCN(CC(O)CCCCCCCCCC)CC(O)CCCCCCCCCC)CC(O)CCCCCC(=O)OC/C=C\CCCCCC (stereo partly drawn) [Compound 15] | 0.11 | 88 nm | 91% |  |  | 22.8 ng/mL |

More lines, main results first:

| Polydispersity Index (PDI) [1] | Size (nm) [1] | Encapsulation efficiency (EE) % [2] | SMILES | hEPO 6 Hr (ng/ml) Mean (BALB/cJ mice; Table 4, further lipids, mouse serum 6 hours post IM injection of hEPO mRNA LNP as in example 3) | hEPO 6 Hr (ng/ml) Mean (BALB/cJ mice; [3]) | hEPO 6 Hr (ng/mL) Mean (BALB/cJ mice; [4]) |
| --- | --- | --- | --- | --- | --- | --- |
| 0.2 | 94 nm | 88% | CCCCCCCCCCC(O)CN(CCCOC(=O)O[C@@H]1CO[C@H]2[C@@H]1OC[C@H]2OC(=O)OCCCN(CC(O)CCCCCCCCCC)CC(O)CCCCCCCCCC)CC(O)CCCCCCCCCC (stereo partly drawn) [Compound 36] | 31.7 ng/mL |  |  |
| 0.11 | 109 nm | 99% | CCCCCCCCCCCOC(=O)CCCC(O)CN(CCCC(=O)O[C@H]1CO[C@H]2[C@@H]1OC[C@H]2OC(=O)CCCN(CC(O)CCCCCC(=O)OC(CCCCCCCC)CCCCCCCC)CC(O)CCCC(=O)OCCCCCCCCCCC)CC(O)CCCCCC(=O)OC(CCCCCCCC)CCCCCCCC (stereo partly drawn) [Compound 33] |  | 17.6 ng/mL |  |
| 0.14 | 93 nm | 85% | CCCCCCCCC(O)CN(CCCC(=O)O[C@@H]1CO[C@H]2[C@@H]1OC[C@H]2OC(=O)CCCN(CC(O)CCCCCCCC)CC(O)CCCCCCCC)CC(O)CCCCCCCC (stereo partly drawn) [Compound 1] |  |  | 42.5 ng/mL |
| 0.08 | 92 nm | 82% | CCCCCC/C=C\COC(=O)CCCCCC(O)CN(CCCC(=O)O[C@H]1CO[C@H]2[C@@H]1OC[C@H]2OC(=O)CCCN(CC(O)CCCCCC(=O)OC/C=C\CCCCCC)CC(O)CCCCCC(=O)OC/C=C\CCCCCC)CC(O)CCCCCC(=O)OC/C=C\CCCCCC (stereo partly drawn) [Compound 35] |  | 28.5 ng/mL |  |
| 0.12 | 69 nm | 72% | CCCCCCCCCCC(O)CN(CCCCOC(=O)O[C@@H]1CO[C@H]2[C@@H]1OC[C@H]2OC(=O)OCCCCN(CC(O)CCCCCCCCCC)CC(O)CCCCCCCCCC)CC(O)CCCCCCCCCC (stereo partly drawn) [Compound 38] |  |  | 22.6 ng/mL |
| 0.16 | 106 nm | 94% | CCCCCCCCCCCCCCCCC(O)CN(CCCC(=O)O[C@H]1CO[C@H]2[C@@H]1OC[C@H]2OC(=O)CCCN(CC(O)CCCCCCCCCCCCCCCC)CC(O)CCCCCCCCCCCCCCCC)CC(O)CCCCCCCCCCCCCCCC (stereo partly drawn) [Compound 30] |  | 25.2 ng/mL |  |
